Measurements published in ChEMBL document CHEMBL1149100, “New 2,4-diamino-5-(2',5'-substituted benzyl)pyrimidines as potential drugs against opportunistic infections of AIDS and other immune disorders. Synthesis and species-dependent antifolate activity” (J Med Chem, 2004).
Converted amounts (≈) assume the structure as drawn.

Experiments:
Dihydrofolate reductase [1] = biological target: T1, Dihydrofolate reductase (Rattus norvegicus, UniProt Q920D2)
T1 sequence (Q920D2 whole entry): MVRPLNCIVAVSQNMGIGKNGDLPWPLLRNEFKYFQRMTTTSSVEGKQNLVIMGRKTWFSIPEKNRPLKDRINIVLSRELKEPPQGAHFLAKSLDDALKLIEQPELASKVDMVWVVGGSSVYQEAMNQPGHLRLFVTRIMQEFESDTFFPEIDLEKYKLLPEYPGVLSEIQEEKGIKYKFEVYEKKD
Description: Inhibitory concentration against dihydrofolate reductase of rat liver

Dihydrofolate reductase [2] = biological target: T2, Dihydrofolate reductase (Pneumocystis carinii, UniProt P16184)
T2 sequence (P16184 whole entry): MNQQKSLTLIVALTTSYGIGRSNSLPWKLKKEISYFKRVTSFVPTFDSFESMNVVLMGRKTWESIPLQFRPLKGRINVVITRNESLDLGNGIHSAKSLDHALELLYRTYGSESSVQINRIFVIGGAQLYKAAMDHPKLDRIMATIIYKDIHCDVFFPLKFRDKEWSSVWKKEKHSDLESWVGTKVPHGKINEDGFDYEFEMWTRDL
Description: Inhibitory concentration against dihydrofolate reductace enzyme of Pneumocystis carinii

Dihydrofolate reductase [3] = biological target: T3, Dihydrofolate reductase (Mycobacterium avium, UniProt O30463)
T3 sequence (O30463 whole entry): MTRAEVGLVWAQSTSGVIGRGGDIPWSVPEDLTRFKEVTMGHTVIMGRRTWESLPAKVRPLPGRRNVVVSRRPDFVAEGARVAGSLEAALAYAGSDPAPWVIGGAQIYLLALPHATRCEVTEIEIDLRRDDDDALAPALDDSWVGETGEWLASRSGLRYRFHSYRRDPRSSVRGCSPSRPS
Description: Inhibitory concentration against dihydrofolate reductase of Mycobacterium avium

[4] = biological target: T4, Bifunctional dihydrofolate reductase-thymidylate synthase (Toxoplasma gondii, UniProt Q07422)
T4 sequence (Q07422 whole entry): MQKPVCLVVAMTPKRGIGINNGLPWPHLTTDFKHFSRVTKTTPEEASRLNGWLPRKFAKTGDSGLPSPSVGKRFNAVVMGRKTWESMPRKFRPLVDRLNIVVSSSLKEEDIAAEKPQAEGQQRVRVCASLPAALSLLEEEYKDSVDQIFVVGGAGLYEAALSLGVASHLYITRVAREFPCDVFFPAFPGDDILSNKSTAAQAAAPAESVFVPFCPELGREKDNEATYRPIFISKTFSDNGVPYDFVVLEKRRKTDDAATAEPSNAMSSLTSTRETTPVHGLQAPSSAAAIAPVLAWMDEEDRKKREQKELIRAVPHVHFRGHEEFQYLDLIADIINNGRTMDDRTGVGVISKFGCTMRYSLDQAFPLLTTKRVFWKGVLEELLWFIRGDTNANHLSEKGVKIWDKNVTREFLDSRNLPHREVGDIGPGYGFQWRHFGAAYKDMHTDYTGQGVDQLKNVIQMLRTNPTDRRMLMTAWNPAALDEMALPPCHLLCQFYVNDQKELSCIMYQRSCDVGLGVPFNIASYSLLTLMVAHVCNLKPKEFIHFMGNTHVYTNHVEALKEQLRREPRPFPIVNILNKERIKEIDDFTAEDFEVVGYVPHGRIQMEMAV

Mycobacterium avium [5] = assay: Minimum inhibitory concentration required for 90 percent inhibition of Mycobacterium avium isolate; format: functional
Mycobacterium avium [6] = assay: Minimum inhibitory concentration required against Mycobacterium avium isolate from patient number MAC100; format: functional
Mycobacterium avium [7] = assay: Minimum inhibitory concentration required for 50 percent inhibition of Mycobacterium avium isolate; format: functional
Mycobacterium avium [8] = assay: Concentration of compound required against Mycobacterium avium; Range is 4-32; format: functional, organism-based
Mycobacterium avium [9] = assay: Minimum inhibitory concentration required against Mycobacterium avium isolate from patient number MAC109; format: functional
Mycobacterium avium [10] = assay: Minimum inhibitory concentration required against Mycobacterium avium isolate from patient number MAC108; format: functional
Mycobacterium avium [11] = assay: Minimum inhibitory concentration required against Mycobacterium avium isolate from patient number MAC16; format: functional
Mycobacterium avium [12] = assay: Minimum inhibitory concentration required against Mycobacterium avium isolate from patient number MAC101; format: functional
Mycobacterium avium [13] = assay: Minimum inhibitory concentration required against Mycobacterium avium isolate from patient number MAC116; format: functional
Mycobacterium avium [14] = assay: Concentration of compound required against Mycobacterium avium; Range is 2-32; format: functional, organism-based
Mycobacterium avium [15] = assay: Concentration of compound required against Mycobacterium aviumRange is 2-32; format: functional, organism-based
Mycobacterium avium [16] = assay: Concentration of compound required against Mycobacterium avium; Range is 2-16 ug/mL; format: functional, organism-based

Row | SMILES | IC50 (Dihydrofolate reductase [1]) [µM] | IC50 (Dihydrofolate reductase [2]) [µM] | IC50 (Dihydrofolate reductase [3]) [µM] | IC50 [4] [µM] | MIC90 (Mycobacterium avium [5]) [µg/mL] | MIC (Mycobacterium avium [6]) [µg/mL] | MIC50 (Mycobacterium avium [7]) [µg/mL] | Concentration (Mycobacterium avium [8]) [µg/mL] | MIC (Mycobacterium avium [9]) [µg/mL] | MIC (Mycobacterium avium [10]) [µg/mL] | MIC (Mycobacterium avium [11]) [µg/mL] | MIC (Mycobacterium avium [12]) [µg/mL] | MIC (Mycobacterium avium [13]) [µg/mL] | Concentration (Mycobacterium avium [14]) [µg/mL] | Concentration (Mycobacterium avium [15]) [µg/mL] | Concentration (Mycobacterium avium [16]) [µg/mL]
1 | COc1ccc(/C=C/COc2ccccc2C(=O)O)cc1Cc1cnc(N)nc1N | 6.4 | 8.6 | 0.38 | 2.5 |  |  |  |  |  |  |  |  |  |  |  | 
2 | COc1ccc(C#CCCCC(=O)O)cc1Cc1cnc(N)nc1N |  |  |  |  | 16 (≈ 47 µM) | 8 (≈ 23.5 µM) | 8 (≈ 23.5 µM) | 32 | 16 (≈ 47 µM) | 32 (≈ 94 µM) | 8 (≈ 23.5 µM) | 4 (≈ 11.8 µM) |  |  |  | 
3 | COc1ccc(CCc2ccc(C(=O)O)cc2)cc1Cc1cnc(N)nc1N | 13 | 7.1 | 0.025 | 1.5 |  |  |  |  |  |  |  |  |  |  |  | 
4 | COc1ccc(C#CCOc2ccccc2C(=O)O)cc1Cc1cnc(N)nc1N |  |  |  |  |  | > 32 |  |  | > 32 | > 32 | > 32 | > 32 |  |  |  | 
5 | COc1ccc(OCCCC(=O)O)cc1Cc1cnc(N)nc1N |  |  |  |  |  | 16 (≈ 48.1 µM) |  |  | 32 (≈ 96.3 µM) | 16 (≈ 48.1 µM) | 32 (≈ 96.3 µM) | 16 (≈ 48.1 µM) |  |  |  | 
6 | COc1ccc(OCCCCC(=O)O)cc1Cc1cnc(N)nc1N |  |  |  |  | 32 (≈ 92.4 µM) | 16 (≈ 46.2 µM) | 16 (≈ 46.2 µM) |  | 16 (≈ 46.2 µM) | > 32 | 16 (≈ 46.2 µM) | 16 (≈ 46.2 µM) |  |  |  | 
7 | COc1ccc(C#Cc2cccc(C(=O)O)c2)cc1Cc1cnc(N)nc1N | 0.65 | 0.023 | 0.0015 | 0.0055 |  | > 64 |  |  | > 64 | > 64 | > 64 | > 64 |  |  |  | 
8 | COc1ccc(CCCOc2cccc(C(=O)O)c2)cc1Cc1cnc(N)nc1N | 4 | 1.1 | 0.025 | 0.21 |  |  |  |  |  |  |  |  |  |  |  | 
9 | COc1ccc(OCc2ccc(C(=O)O)cc2)cc1Cc1cnc(N)nc1N |  |  |  |  |  | > 32 |  |  | > 32 | > 32 | > 32 | > 32 |  |  |  | 
10 | COc1ccc(OCc2cccc(C(=O)O)c2)cc1Cc1cnc(N)nc1N |  |  |  |  |  | > 32 |  |  | > 32 | > 32 | > 32 | > 32 |  |  |  | 
11 | COc1cc(Cc2cnc3nc(N)nc(N)c3c2C)cc(OC)c1 |  |  | 0.00064 |  |  |  |  |  |  |  |  |  |  |  |  | 
12 | COc1ccc(C#Cc2ccc(C(=O)O)cc2)cc1Cc1cnc(N)nc1N | 8.2 | 1.3 | 0.0037 | 0.34 |  | > 64 |  |  | > 64 | > 64 | > 64 | > 64 |  |  |  | 
13 | COc1ccc(C#Cc2ccccc2C(=O)O)cc1Cc1cnc(N)nc1N | 25 | 4.1 | 0.1 | 1.9 |  | > 64 |  |  | > 64 | > 64 |  | > 64 | > 64 |  |  | 
14 | COc1ccc(CCCCCC(=O)O)cc1Cc1cnc(N)nc1N |  |  |  |  |  | 32 (≈ 92.9 µM) |  |  | 32 (≈ 92.9 µM) | > 32 | 32 (≈ 92.9 µM) | 16 (≈ 46.5 µM) |  |  |  | 
15 | COc1ccc(OCCCCCCCC(=O)O)cc1Cc1cnc(N)nc1N |  |  |  |  | 8 (≈ 20.6 µM) | 8 (≈ 20.6 µM) | 4 (≈ 10.3 µM) |  | 2 (≈ 5.15 µM) | 32 (≈ 82.4 µM) | 2 (≈ 5.15 µM) | 4 (≈ 10.3 µM) |  | 32 |  | 
16 | COc1ccc(OCCCCCCC(=O)O)cc1Cc1cnc(N)nc1N |  |  |  |  | 32 (≈ 85.5 µM) | 16 (≈ 42.7 µM) | 4 (≈ 10.7 µM) |  | 8 (≈ 21.4 µM) | > 32 | 16 (≈ 42.7 µM) | 8 (≈ 21.4 µM) |  |  | 32 | 
17 | COc1ccc(CCCCC(=O)O)cc1Cc1cnc(N)nc1N |  |  |  |  |  | > 32 |  |  | > 32 | > 32 |  | > 32 | > 32 |  |  | 
18 | COc1ccc(C#CCOc2cccc(C(=O)O)c2)cc1Cc1cnc(N)nc1N |  |  |  |  |  | > 32 |  |  | > 32 | > 32 | > 32 | > 32 |  |  |  | 
19 | CCCCCCOc1ccc(OC)c(Cc2cnc(N)nc2N)c1 |  |  |  |  |  | 32 (≈ 96.8 µM) |  |  | 32 (≈ 96.8 µM) | 32 (≈ 96.8 µM) | 32 (≈ 96.8 µM) | 32 (≈ 96.8 µM) |  |  |  | 
20 | COc1ccc(OCCCCCCCCC(=O)O)cc1Cc1cnc(N)nc1N |  |  |  |  | 8 (≈ 19.9 µM) | 8 (≈ 19.9 µM) | 4 (≈ 9.94 µM) |  | 4 (≈ 9.94 µM) | > 32 | 2 (≈ 4.97 µM) | 2 (≈ 4.97 µM) |  |  |  | 16
21 | COc1ccc(CCCCCCC(=O)O)cc1Cc1cnc(N)nc1N |  |  |  |  |  | > 32 |  |  | 32 (≈ 89.3 µM) | > 32 | 16 (≈ 44.6 µM) | 32 (≈ 89.3 µM) |  |  |  | 
22 | COc1ccc(OCCCCCC(=O)O)cc1Cc1cnc(N)nc1N |  |  |  |  | 32 (≈ 88.8 µM) | 16 (≈ 44.4 µM) | 4 (≈ 11.1 µM) | 32 | 8 (≈ 22.2 µM) | 32 (≈ 88.8 µM) | 8 (≈ 22.2 µM) | 8 (≈ 22.2 µM) |  |  |  | 
23 | COc1ccc(C#CCCCCC(=O)O)cc1Cc1cnc(N)nc1N |  |  |  |  | 16 (≈ 45.1 µM) | 4 (≈ 11.3 µM) | 8 (≈ 22.6 µM) |  | 4 (≈ 11.3 µM) | > 32 | 2 (≈ 5.64 µM) | 2 (≈ 5.64 µM) |  | 32 |  | 
24 | CCCCCCCOc1ccc(OC)c(Cc2cnc(N)nc2N)c1 |  |  |  |  | 8 (≈ 23.2 µM) | 8 (≈ 23.2 µM) | 8 (≈ 23.2 µM) |  | 8 (≈ 23.2 µM) | 8 (≈ 23.2 µM) | 8 (≈ 23.2 µM) | 4 (≈ 11.6 µM) |  |  |  | 16
25 | COc1ccc(CCCOc2ccccc2C(=O)O)cc1Cc1cnc(N)nc1N | 25 | 7.8 | 0.31 | 0.71 |  |  |  |  |  |  |  |  |  |  |  | 
26 | Cc1ccc(Cl)cc1Cc1cnc2nc(N)nc(N)c2c1C |  |  | 0.00019 |  |  |  |  |  |  |  |  |  |  |  |  | 
27 | COc1ccc(C#CCCC(=O)O)cc1Cc1cnc(N)nc1N |  |  |  |  | 16 (≈ 49 µM) | 8 (≈ 24.5 µM) | 8 (≈ 24.5 µM) | 32 | 16 (≈ 49 µM) | 16 (≈ 49 µM) | 16 (≈ 49 µM) | 8 (≈ 24.5 µM) |  |  |  | 
